Experimental data as given in patent publication US7018836B1, “P-TEFb compositions, methods and screening assays” (priority 1996, dated 2006).

Tested on: CTD kinase found in the preinitiation complex
Test: Phosphorylation of RNA polymerase II in isolated preinitiation complexes (western blot)
Assay type: biochemical, Drosophila
Conditions: 20 μM DRB
Procedure: Preinitiation complexes were formed on an immobilized actin template digested with HpaII (780 nt runoff) as described in Marshall and Price (Marshall and Price, 1992). The preinitiation complexes were isolated, washed once with 55 mM HKB (20 mM HEPES, 55 mM KCl and 200 μg/ml BSA) and resuspended into 55 mM HKB. Transcription was initiated by the addition of a pulse solution, which contained 5 μCi of [α-^32P]CTP and brought the reaction mixture to 600 μM in ATP, GTP and UTP and 2 mM MnCl2. MnCl2 increased the rate of initiation of preinitiation complexes, thereby, increasing the number of polymerases in early elongation complexes after a short pulse. After 15 seconds the reaction was stopped by the addition of EDTA to 10 mM.
Preinitiation complexes were formed on an immobilized actin template as described above in Methods, Section 3. […] Incubation of the preinitiation complexes with ATP caused a significant shift of the polymerase to the IIo form. The antibodies used to detect the large subunit of RNA polymerase II reacted more strongly with the […] of the large subunit than either the phosphorylated IIo form or the truncated IIb form. This phosphorylation was unaffected by the presence of 20 μM DRB.

SMILES: OC[C@H]1O[C@@H](n2cnc3cc(Cl)c(Cl)cc32)[C@H](O)[C@@H]1O [DRB, 5,6-dichloro-1-β-D-ribofuranosylbenzimidazole]
- phosphorylation of RNA polymerase II to IIo in preinitiation complexes incubated with ATP: unaffected
